# Data taken from patent US6583133B1, “Propenyl cephalosporin derivatives and process for the manufacture thereof” (Basilea Pharmaceutica AG, priority 1998, dated 2003).
# Read-outs that look alike come from different tables or passages of the source.
# Experiments:
# S. pneumoniae 907 = experiment: MIC, agar dilution method in Mueller Hinton agar; format: cell-based; conditions: inoculum 10^4 CFU/spot
# Procedure: (§1) Representative compounds of the present invention were tested. In vitro activity was determined by minimum inhibitory concentration in a microorganism spectrum by the agar dilution method in Mueller Hinton agar, inoculum=10^4 CFU/spot.
# E. faecalis 6 = experiment: MIC, agar dilution method in Mueller Hinton agar; format: cell-based; conditions: inoculum 10^4 CFU/spot
# Procedure: as §1
# S. aureus 6538 (MSSA) = experiment: MIC, agar dilution method in Mueller Hinton agar; format: cell-based; conditions: inoculum 10^4 CFU/spot
# Procedure: as §1
# S. aureus 270A (MRSA) = experiment: MIC, agar dilution method in Mueller Hinton agar; format: cell-based; conditions: inoculum 10^4 CFU/spot
# Procedure: as §1
# S. aureus SPO-19 (MRSA) = experiment: MIC against MRSA alone or in combination with imipenem or compound X, agar dilution; format: cell-based, Staphylococcus aureus; conditions: inoculum 10^5 CFU/spot; for MIC: Staphylococcus aureus, MRSA
# From the text: (§2) For example, the combination with carbapenem antibiotics such as imipenem, or with β-lactamase-inhibitors such as (Z)-(2S,3S,5R)-3-(2-cyanoethenyl)-3-methyl-4,4,7-trioxo-4-thia-1-aza-bicyclo[3.2.0]heptane-2-carboxylic acid (below named “compound X”), enhances the antibacterial activity of compounds I against highly resistant strains of Graem-positive bacterias, e.g. methicillin-resistant strains of Staphylococcus aureus.
# S. aureus 42080 (MRSA) = experiment: as above; format: cell-based, Staphylococcus aureus; conditions: inoculum 10^5 CFU/spot; for MIC: Staphylococcus aureus, MRSA
# From the text: as §2
# [1] = Streptococcus pneumoniae, read-out: MIC
# [2] = Enterococcus faecalis, read-out: MIC
# [3] = Staphylococcus aureus, read-out: MIC
# [4] = in combination with Compound X (μg/ml, concentration not given)
# [5] = in combination with Imipenem (4 μg/ml)
Compound,MIC (S. pneumoniae 907; [1]),MIC (E. faecalis 6; [2]),MIC (S. aureus 6538 (MSSA); [3]),MIC (S. aureus 270A (MRSA); [3]),MIC (S. pneumoniae 907),MIC (E. faecalis 6),MIC (S. aureus 6538 (MSSA)),MIC (S. aureus 270A (MRSA)),also measured
"O=C(CSc1nc2ccccc2s1)N[C@@H]1C(=O)N2C(C(=O)[O-])=C(/C=C/C[n+]3ccccc3)CS[C@H]12 [Example 2, (E)-(6R,7R)-7-[2-(benzothiazol-2-ylsulfanyl)-acetylamino]-8-oxo-3-(3-pyridin-1-ium-1-yl-propenyl)-5-thia-1-aza-bicyclo[4.2.0]oct-2-ene-2-carboxylate]",< 0.1 µg/mL,2 µg/mL,< 0.1 µg/mL,2 µg/mL,–,–,–,–,–
"Cc1cccc[n+]1C/C=C/C1=C(C(=O)[O-])N2C(=O)[C@@H](NC(=O)CSc3ccc4ccccc4c3)[C@H]2SC1 [Example 7, (E)-(6R,7R)-3-[3-(2-Methyl-pyridin-1-ium-1-yl)-propenyl]-7-[2-(naphthalen-2-ylsulfanyl)-acetylamino]-8-oxo-5-thia-1-aza-bicyclo[4.2.0]oct-2-ene-2-carboxylate]",< 0.1 µg/mL,1 µg/mL,< 0.1 µg/mL,2 µg/mL,–,–,–,–,–
"O=C(CSc1ccc2ccccc2c1)N[C@@H]1C(=O)N2C(C(=O)[O-])=C(/C=C/C[n+]3cccc(O)c3)CS[C@H]12 [Example 9, (E)-(6R,7R)-3-[3-(3-Hydroxy-pyridin-1-ium-1-yl)-propenyl]-7-[2-(naphtalen-2-ylsulfanyl)-acetylamino]-8-oxo-5-thia-1-aza-bicyclo[4.2.0]oct-2-ene-2-carboxylate]",–,–,–,–,<0.1 µg/mL,0.5 µg/mL,<0.1 µg/mL,2 µg/mL,–
"C[N+](C)(C/C=C/C1=C(C(=O)[O-])N2C(=O)[C@@H](NC(=O)CSc3ccc4ccccc4c3)[C@H]2SC1)CC(N)=O [Example 19, (E)-(6R,7R)-3-[3-(Carbamoylmethyl-dimethyl-ammonio)-propenyl]-7-[2-(naphtalen-2-ylsulfanyl)-acetylamino]-8-oxo-5-thia-1-aza-bicyclo[4.2.0]oct-2-ene-2-carboxylate]",–,–,–,–,<0.1 µg/mL,0.5 µg/mL,<0.1 µg/mL,1 µg/mL,–
"O=C(CSc1ccc2ccccc2c1)N[C@@H]1C(=O)N2C(C(=O)[O-])=C(/C=C/C[n+]3ccccc3)CS[C@H]12 [Example 22, (E)-(6R,7R)-7-[2-(naphthalen-2-ylsulfanyl)-acetylamino]-8-oxo-3-(3-pyridin-1-ium-1-yl-propenyl)-5-thia-1-aza-bicyclo[4.2.0]oct-2-ene-2-carboxylate]",< 0.1 µg/mL,0.5 µg/mL,< 0.1 µg/mL,1 µg/mL,–,–,–,–,MIC (S. aureus SPO-19 (MRSA); compound alone): 4 µg/mL; MIC against MRSA (S. aureus SPO-19 (MRSA); [4]): 0.5 µg/mL; MIC against MRSA (S. aureus SPO-19 (MRSA); [5]): 1 µg/mL; MIC (S. aureus 42080 (MRSA); compound alone): 4 µg/mL; MIC against MRSA (S. aureus 42080 (MRSA); [4]): 1 µg/mL; MIC against MRSA (S. aureus 42080 (MRSA); [5]): 1 µg/mL
"C[N+](C)(C/C=C/C1=C(C(=O)[O-])N2C(=O)[C@@H](NC(=O)CSc3nc4ccccc4s3)[C@H]2SC1)CCO [Example 41, (E)-(6R,7R)-3-[3-[Dimethyl-(2-hydroxy-ethyl)-ammonio]-propenyl]-7-[2-(benzothiazol-2-ylsulfanyl)-acetylamino]-8-oxo-5-thias1-aza-bicyclo[4.2.0]oct-2-ene-2-carboxylate]",–,–,–,–,<0.1 µg/mL,1 µg/mL,<0.1 µg/mL,4 µg/mL,–
"O=C(CSc1ccc2ccccc2c1)N[C@@H]1C(=O)N2C(C(=O)[O-])=C(/C=C/C[N+]34CCN(CC3)CC4)CS[C@H]12 [Example 59, (E)-(6R,7R)-3-[3-(4-Aza-1-azonia-bicyclo[2,2,2]octan-1-yl)-propenyl]-7-[2-(naphthalen-2-ylsulfanyl)-acetylamino]-8-oxo-5-thia-1-aza-bicyclo[4.2.0]oct-2-ene-2-carboxylate]",< 0.1 µg/mL,2 µg/mL,< 0.1 µg/mL,2 µg/mL,–,–,–,–,MIC (S. aureus SPO-19 (MRSA); compound alone): 4 µg/mL; MIC against MRSA (S. aureus SPO-19 (MRSA); [5]): 1 µg/mL; MIC (S. aureus 42080 (MRSA); compound alone): 4 µg/mL; MIC against MRSA (S. aureus 42080 (MRSA); [5]): 2 µg/mL
"C[N+](C)(C/C=C/C1=C(C(=O)[O-])N2C(=O)[C@@H](NC(=O)CSc3ccc4ccccc4c3)[C@H]2SC1)CCCO [Example 62, (E)-(6R,7R)-3-[3-[(3-Hydroxy-propyl)-dimethyl-ammonio]-propenyl]-7-[2-(naphthalen-2-ylsulfanyl)-acetylamino]-8-oxo-5-thia-1-aza-bicyclo[4.2.0]oct-2-ene-2-carboxylate]",< 0.1 µg/mL,1 µg/mL,< 0.1 µg/mL,2 µg/mL,–,–,–,–,MIC (S. aureus SPO-19 (MRSA); compound alone): 2 µg/mL; MIC against MRSA (S. aureus SPO-19 (MRSA); [5]): 1 µg/mL; MIC (S. aureus 42080 (MRSA); compound alone): 4 µg/mL; MIC against MRSA (S. aureus 42080 (MRSA); [5]): 2 µg/mL
"C[C@@H](O)[C@H]1C(=O)N2C(C(=O)O)=C(SCCN=CN)C[C@H]12 [Imipenem, imipenem, reference compound]",–,–,–,–,–,–,–,–,MIC (S. aureus SPO-19 (MRSA); compound alone): > 16 µg/mL; MIC (S. aureus 42080 (MRSA); compound alone): > 16 µg/mL
"(E)-(6R,7R)-8-Oxo-3-(3-pyridin-1-ium-1-yl-propenyl)-7-[2-(2,4,5-trichlorophenylsulfanyl)-acetylamino]-5-thia-1-aza-bicyclo[4.2.0]oct-2-ene-2-carboxylate [Example 6]",–,–,–,–,<0.1 µg/mL,0.25 µg/mL,<0.1 µg/mL,1 µg/mL,MIC against MRSA (S. aureus SPO-19 (MRSA); compound alone): 4 µg/mL; MIC against MRSA (S. aureus SPO-19 (MRSA); [5]): 0.5 µg/mL; MIC against MRSA (S. aureus 42080 (MRSA); compound alone): 8 µg/mL; MIC against MRSA (S. aureus 42080 (MRSA); [5]): 1 µg/mL

# Second part, led by results:
MIC (S. pneumoniae 907; [1]),MIC (E. faecalis 6; [2]),MIC (S. aureus 6538 (MSSA); [3]),MIC (S. aureus 270A (MRSA); [3]),MIC (S. pneumoniae 907),MIC (E. faecalis 6),MIC (S. aureus 6538 (MSSA)),MIC (S. aureus 270A (MRSA)),Compound,also measured
< 0.1 µg/mL,0.25 µg/mL,< 0.1 µg/mL,1 µg/mL,–,–,–,–,"O=C(CSc1ccc2ccccc2c1)N[C@@H]1C(=O)N2C(C(=O)[O-])=C(/C=C/C[n+]3cccc4ccccc43)CS[C@H]12 [Example 13, (E)-(6R,7R)-7-[2-(Naphthalen-2-ylsulfanyl)-acetylamino]-8-oxo-3-(3-quinolin-1-ium-1-yl-propenyl)-5-thia-1-aza-bicyclo[4.2.0]oct-2-ene-2-carboxylate]",–
–,–,–,–,<0.1 µg/mL,0.5 µg/mL,<0.1 µg/mL,2 µg/mL,C[N+]1(C/C=C/C2=C(C(=O)[O-])N3C(=O)[C@@H](NC(=O)CSc4ccc5ccccc5c4)[C@H]3SC2)CCCC1 [Example 15],–
< 0.1 µg/mL,1 µg/mL,< 0.1 µg/mL,2 µg/mL,–,–,–,–,"C[N+](C)(C/C=C/C1=C(C(=O)[O-])N2C(=O)[C@@H](NC(=O)CSc3nc4ccccc4s3)[C@H]2SC1)C(CO)CO [Example 67, (E)-(6R,7R)-7-[2-(Benzothiazol-2-ylsulfanyl)-acetylamino]-8-oxo-3-[3-[(2-hydroxy-1-hydroxymethyl-ethyl)-dimethyl-ammonio]-propenyl]-5-thia-1-aza-bicyclo[4.2.0]oct-2-ene-2-carboxylate]",–
–,–,–,–,<0.1 µg/mL,4 µg/mL,<0.1 µg/mL,2 µg/mL,C[N+](C)(C/C=C/C1=C(C(=O)[O-])N2C(=O)[C@@H](NC(=O)CSc3ccc4cc(C(=O)O)ccc4c3)[C@H]2SC1)CC(N)=O [Example 99],–
